Measured values published in patent publication US10604487B2, “Pyridinol derivative or pharmaceutically acceptable salt thereof, and pharmaceutical composition containing same as active ingredient” (Research Cooperation Foundation of Yeungnam University, priority 2016, dated 2020).
Where two headings read alike, the source gives them in different places.

Assays:
[1] = Cytotoxicity test (MTT), U937; format: cell-based; settings: human, U937, 48 h; for viability at 48 h, 0.01 µM / viability at 48 h, 0.1 µM / viability at 48 h, 1 µM / viability at 48 h, 10 µM / viability at 48 h, 100 µM: U937 cells (monocytic blood cancer-derived cell line), read-out: Cell viability (% of control); for IC50 at 48 h: U937 cells
Protocol: (§1) The human colorectal cancer cell line HT-29 and the monocytic blood cancer-derived cell line U937 were cultured in a RPMI 1640 medium containing 10% FBS and 1% penicillin/streptomycin (PS) at 37° C. under a condition of 5% CO2, and when the cells used herein were grown to 80% or more, they were subcultured at a ratio of 1:3.
(§2) Each type of cells were cultured in a 96 well plate at a concentration of 1×10^5 cells/cm2, treated with a test compound by concentration in a medium only containing 1% FBS and 1% PS at 37° C. under a condition of 5% CO2 for 48 hours and reacted with 5 mg/mL of a 3-[4,5-dimethylthiazol-2-yl]-2,5-diphenyltetrazolium bromide (MTT) reagent for 4 hours, and then the medium was completely removed, the cells were treated with DMSO, formazan crystals were dissolved for 30 minutes, and then absorbance was measured at 540 nm.

[2] = Cytotoxicity test (MTT), HT-29; format: cell-based; settings: human, HT-29, 48 h; for viability at 48 h, 0.01 µM / viability at 48 h, 0.1 µM / viability at 48 h, 1 µM / viability at 48 h, 10 µM / viability at 48 h, 100 µM: HT-29 cells (colorectal cancer cell line), read-out: Cell viability (% of control); for IC50 at 48 h: HT-29 cells
Protocol: as §1, §2

[3] = system: TNF-α-induced adhesion of monocytes to intestinal epithelial cells; assay: Inhibitory activity against TNF-α-induced adhesion of monocytes (U937) to intestinal epithelial cells (HT-29); format: cell-based, human; settings: Homo sapiens
Protocol: HT-29 human colorectal cancer-derived epithelial cells and U937 human-derived monocytic cells were cultured in an RPMI 1640 medium containing 10% FBS and 1% penicillin/streptomycin (PS) at 37° C. under a condition of 5% CO2, and when the cells were grown to 80% or more in a culture flask, they were subcultured in a ratio of 1:3 to be used in this test. The HT-29 cells were cultured in a 24-well plate at a concentration of 2×10^5 cells/cm2, and then the medium only containing 1% FBS and 1% PS was pretreated with a test drug for 1 hour. Afterward, BCECF-loaded U937 cells by being treated with 10 μg/mL of BCECF-AM at 37° C. for 30 minutes and 10 ng/mL of TNF-α reacted with the HT-29 cells previously treated with the test drug at 37° C. for 3 hours. After the reaction, the medium was removed, and then the cells were washed with PBS twice to remove U937 cells that were not adhered. In a subsequent step, for cell lysis, 0.1% Triton X-100 (0.1 M Tris) was treated to allow a reaction at room temperature for 30 minutes, and then fluorescence was measured using a Fluostar optima microplate reader (BMG LABTECH, Germany) to quantify the cells (Carvalho et al., 1996; Thapa et al., 2008).

[4] = read-out: IC50 (μM), cytotoxicity
[5] = 1 μM test drug, HT-29/U937 adhesion, 10 ng/mL TNF-α, read-out: Inhibitory activity (%)

## O=c1[nH]cc(F)c(=O)[nH]1 [5-Fluorouracil, reference compound]
[1]
  viability at 48 h, 0.01 µM: 93 ± 2.7%
  viability at 48 h, 0.1 µM: 89.8 ± 2.7%
  viability at 48 h, 1 µM: 75.7 ± 0.6%
  viability at 48 h, 10 µM: 71.3 ± 1.7%
  viability at 48 h, 100 µM: 59.7 ± 0.2%
  IC50 at 48 h: > 100 µM
[2]
  viability at 48 h, 0.01 µM: 85.5 ± 3.9%
  viability at 48 h, 0.1 µM: 77.6 ± 4.6%
  viability at 48 h, 1 µM: 61.9 ± 4.2%
  viability at 48 h, 10 µM: 48.3 ± 2%
  viability at 48 h, 100 µM: 36 ± 2.5%
[2]; [4]
  IC50 at 48 h: 7.6 µM

## Nc1ccc(O)c(C(=O)O)c1 [Compound 5-ASA, 5-aminosalicylic acid, reference compound]
[3]; [5]
  inhibition at 1 µM: 3.8%
[3]; 1 μM, Table 8, read-out: 1 μM concentration inhibitory activity
  inhibition at 1 µM: 3.8%
[3]; HT-29/U937 adhesion, TNF-α-induced, read-out: IC50 (adhesion inhibition)
  IC50: 18100 µM

## CCCNC(=O)Nc1nc(C)c(O)c(C)c1C [Compound 16-1, 1-(5-hydroxy-3,4,6-trimethylpyridin-2-yl)-3-propylurea]
[1]
  viability at 48 h, 0.01 µM: 89.1 ± 3.5%
  viability at 48 h, 0.1 µM: 88.4 ± 3.5%
  viability at 48 h, 1 µM: 90 ± 4.8%
  viability at 48 h, 10 µM: 75.2 ± 0.9%
  viability at 48 h, 100 µM: 44.2 ± 0.7%
  IC50 at 48 h: 15.4 µM
[3]; [5]
  inhibition at 1 µM: 18.2%
[2]
  viability at 48 h, 0.01 µM: 94.9 ± 6.5%
  viability at 48 h, 0.1 µM: 84.4 ± 7.6%
  viability at 48 h, 1 µM: 84.4 ± 4.2%
  viability at 48 h, 10 µM: 70.9 ± 6.2%
  viability at 48 h, 100 µM: 42.8 ± 2.7%
[2]; text of b533, read-out: cytotoxicity IC50 for HT-29
  IC50 at 48 h: 64.6 µM

## Cc1nc(NC(=O)Nc2ccc(F)cc2)c(C)c(C)c1O [Compound 16-7, 1-(4-Fluorophenyl)-3-(5-hydroxy-3,4,6-trimethylpyridin-2-yl)urea]
[3]; [5]
  inhibition at 1 µM: 14.6%

## Cc1nc(NC(=O)Nc2ccc(Br)cc2)c(C)c(C)c1O [Compound 16-8, 1-(4-Bromophenyl)-3-(5-hydroxy-3,4,6-trimethylpyridin-2-yl)urea]
[3]; [5]
  inhibition at 1 µM: 17.2%

## Cc1ccc(NC(=O)Nc2nc(C)c(O)c(C)c2C)cc1 [Compound 16-9, 1-(5-hydroxy-3,4,6-trimethylpyridin-2-yl)-3-(p-tolyl)urea]
[3]; [5]
  inhibition at 1 µM: 20.1%

## COc1ccc(NC(=O)Nc2nc(C)c(O)c(C)c2C)cc1 [Compound 16-10, 1-(5-Hydroxy-3,4,6-trimethylpyridin-2-yl)-3-(4-methoxyphenyl)urea]
[3]; [5]
  inhibition at 1 µM: 12.6%

## Cc1nc(NC(=O)Nc2ccc(C(F)(F)F)cc2)c(C)c(C)c1O [Compound 16-11, 1-(5-hydroxy-3,4,6-trimethylpyridin-2-yl)-3-(4-(trifluoromethyl)phenyl)urea]
[3]; [5]
  inhibition at 1 µM: 52.7%

## Cc1nc(NC(=O)Nc2ccc(OC(F)(F)F)cc2)c(C)c(C)c1O [Compound 16-13, 1-(5-hydroxy-3,4,6-trimethylpyridin-2-yl)-3-(4-(trifluoromethoxy)phenyl)urea]
[3]; [5]
  inhibition at 1 µM: 12.6%

## Cc1nc(NC(=O)NCc2ccccc2)c(C)c(C)c1O [Compound 16-14, 1-benzyl-3-(5-hydroxy-3,4,6-trimethylpyridin-2-yl)urea]
[3]; [5]
  inhibition at 1 µM: 4.9%

## Cc1nc(NC(=O)Nc2ccc(C(C)C)cc2)c(C)c(C)c1O [Compound 16-15, 1-(5-hydroxy-3,4,6-trimethylpyridin-2-yl)-3-(4-isopropylphenyl)urea]
[3]; [5]
  inhibition at 1 µM: 11.5%

## Cc1nc(NC(=O)NC(=O)c2ccccc2)c(C)c(C)c1O [Compound 16-16, N-((5-hydroxy-3,4,6-trimethylpyridin-2-yl)carbamoyl)benzamide]
[3]; [5]
  inhibition at 1 µM: 34.2%

## Cc1nc(NC(=S)Nc2ccc(Cl)c(Cl)c2)c(C)c(C)c1OCc1ccccc1 [Compound 17-8a, 1-(5-benzyloxy-3,4,6-trimethylpyridin-2-yl)-3-(3,4-dichlorophenyl)thiourea]
[3]; [5]
  inhibition at 1 µM: 17.3%

## COc1c(C)nc(NC(=S)Nc2ccc(Cl)c(Cl)c2)c(C)c1C [Compound 17-8b, 1-(3,4-dichlorophenyl)-3-(5-methoxy-3,4,6-trimethylpyridin-2-yl)thiourea]
[3]; [5]
  inhibition at 1 µM: 39.5%

## Cc1nc(NC(=S)Nc2ccc(Cl)c(Cl)c2)c(C)c(C)c1O[Si](c1ccccc1)(c1ccccc1)C(C)(C)C [Compound 17-8c, 1-(5-((tert-butyldiphenylsilyl)oxy)-3,4,6-trimethylpyridin-2-yl)-3-(3,4-dichlorophenyl)thiourea]
[3]; [5]
  inhibition at 1 µM: 18.8%

## Cc1nc(NC(=S)Nc2cccc(C(F)(F)F)c2)c(C)c(C)c1OCc1ccccc1 [Compound 17-9a, 1-(5-benzyloxy-3,4,6-trimethylpyridin-2-yl)-3-(3-(trifluoromethyl)phenyl)thiourea]
[3]; [5]
  inhibition at 1 µM: 19.6%

## COc1c(C)nc(NC(=S)Nc2cccc(C(F)(F)F)c2)c(C)c1C [Compound 17-9b, 1-(5-Methoxy-3,4,6-trimethylpyridin-2-yl)-3-(3-(trifluoromethyl)phenyl)thiourea]
[3]; [5]
  inhibition at 1 µM: 39%

## Cc1nc(NC(=S)Nc2cccc(C(F)(F)F)c2)c(C)c(C)c1O[Si](c1ccccc1)(c1ccccc1)C(C)(C)C [Compound 17-9c, 1-(5-((tert-Butyldiphenylsilyl)oxy)-3,4,6-trimethylpyridin-2-yl)-3-(3-(trifluoromethyl)phenyl)thiourea]
[3]; [5]
  inhibition at 1 µM: 25.9%

## COc1ccc(NC(=S)Nc2nc(C)c(O[Si](c3ccccc3)(c3ccccc3)C(C)(C)C)c(C)c2C)cc1 [Compound 17-12c, 1-(5-((tert-Butyldiphenylsilyl)oxy)-3,4,6-trimethylpyridin-2-yl)-3-(4-methoxyphenyl)thiourea]
[3]; [5]
  inhibition at 1 µM: 16%

## Cc1ccc(NC(=S)Nc2nc(C)c(O)c(C)c2C)cc1 [Compound 18-5, 1-(5-hydroxy-3,4,6-trimethylpyridin-2-yl)-3-(p-tolyl)thiourea]
[3]; [5]
  inhibition at 1 µM: 19.2%

## Cc1nc(NC(=S)Nc2ccc(Br)cc2)c(C)c(C)c1O [Compound 18-7, 1-(4-bromophenyl)-3-(5-hydroxy-3,4,6-trimethylpyridin-2-yl)thiourea]
[3]; [5]
  inhibition at 1 µM: 27.8%

## COc1ccc(NC(=S)Nc2nc(C)c(O)c(C)c2C)cc1 [Compound 18-12, 1-(5-Hydroxy-3,4,6-trimethylpyridin-2-yl)-3-(4-methoxyphenyl)thiourea]
[3]; [5]
  inhibition at 1 µM: 13.3%

## Cc1nc(O)c(C)c(C)c1O [Compound 28-1, 3,4,6-Trimethylpyridine-2,5-diol]
[3]; [5]
  inhibition at 1 µM: ≥ 50%

## CCCCOc1nc(C)c(O)c(C)c1C [Compound 28-2, 6-butoxy-2,4,5-trimethylpyridin-3-ol]
[3]; [5]
  inhibition at 1 µM: 48.2%

## CCCCCCCCOc1nc(C)c(O)c(C)c1C [Compound 28-3, 2,4,5-Trimethyl-6-(octyloxy)pyridin-3-ol]
[3]; [5]
  inhibition at 1 µM: 30.4%

## Cc1nc(OCCC(C)C)c(C)c(C)c1O [Compound 28-4, 6-isopentyloxy-2,4,5-trimethylpyridin-3-ol]
[3]; [5]
  inhibition at 1 µM: 33.2%

## Cc1nc(OC2CCCC2)c(C)c(C)c1O [Compound 28-5, 6-cyclopentyloxy-2,4,5-trimethylpyridin-3-ol]
[3]; [5]
  inhibition at 1 µM: 28.8%

## Cc1nc(OCCCc2ccccc2)c(C)c(C)c1O [Compound 28-6, 2,4,5-Trimethyl-6-(3-phenylpropoxy)pyridin-3-ol]
[3]; [5]
  inhibition at 1 µM: ≥ 50%

## COc1cccc2c1C(=O)c1c(O)c3c(c(O)c1C2=O)C[C@@](O)(C(=O)CO)C[C@@H]3O[C@H]1C[C@H](N)[C@H](O)[C@H](C)O1 [Doxorubicin, reference compound]
[1]
  viability at 48 h, 0.01 µM: 93.6 ± 1.8%
  viability at 48 h, 0.1 µM: 91.4 ± 3.3%
  viability at 48 h, 1 µM: 42.2 ± 1.3%
  viability at 48 h, 10 µM: 38.3 ± 0.6%
  viability at 48 h, 100 µM: 33.2 ± 1.3%
  IC50 at 48 h: 0.6 µM
[2]
  viability at 48 h, 0.01 µM: 69.9 ± 1.1%
  viability at 48 h, 0.1 µM: 66.9 ± 3.3%
  viability at 48 h, 1 µM: 58.2 ± 6.4%
  viability at 48 h, 10 µM: 53.2 ± 5.1%
  viability at 48 h, 100 µM: 35.7 ± 2%
[2]; [4]
  IC50 at 48 h: 12.9 µM
